Measurements taken from patent publication EP0097039A1, “5-(E-2-halovinyl)-2'-deoxyuridine derivatives, processes for their preparation, pharmaceutical compositions containing them, and their use in treating viral infections” (BEECHAM GROUP PLC, priority 1982, dated 1983).
“And” between values parts separate entries of the source, which are not always exact repeats. Identical values can stand only once. Like-named read-outs stand apart in the source and are kept apart here.

Assays:
[1] = system: Herpes Simplex type 1 virus (HFEM strain); experiment: plaque reduction assay in Vero cells infected with Herpes Simplex type 1 virus; assay type: cell-based
Experimental: (§1) Vero (African Green Monkey Kidney) cells were grown to confluence in 24 well multidishes, each well being 1.6 cm in diameter. The cells were infected with Herpes Simplex type 1 virus (HFEM strain) and overlaid with 0.5 mL of 0.9% agarose (w/v) in maintenance medium in concentrations ranging from 100 to 0.03 µg/ml in half-log dilution steps, were added in 0.5 mL volume. The virus infected cultures were then incubated at 37 °C for 4 days before fixing in 4% formaldehyde solution and staining with carbolfuchsin.

[2] = cytotoxicity (minimum toxic concentration) in the infected Vero cell cultures; assay type: cell-based, African Green Monkey; conditions: monkey; minimum concentration of test compound which caused cytotoxicity; Vero cells, highest concentration tested 100 µg/ml; read-out: MTD
Experimental: as §1

[3] = system: Vero (African Green Monkey Kidney) cells; experiment: as above; assay type: cell-based; conditions: vero cells, 96 h
Experimental: as §1

[4] = Human alphaherpesvirus 1, 96 h, concentration causing 50% reduction in number of virus plaques, Vero cells, HSV-1 HFEM strain, 4 days at 37 C, read-out: PDD50 (the source's name)
[5] = Human alphaherpesvirus 1, 96 h, same PD50 expressed in µM, Vero cells, HSV-1 HFEM strain, 4 days at 37 C, read-out: PDD50 (the source's name)
[6] = Human alphaherpesvirus 1, Vero, 96 h, read-out: PDD50
[7] = concentration causing 50% reduction in number of virus plaques, Vero cells, HSV-1 HFEM strain, 4 days at 37 C
[8] = same PD50 expressed in µM, Vero cells, HSV-1 HFEM strain, 4 days at 37 C, read-out: PDD50 (the source's name)

With `COCC(=O)OC[C@H]1O[C@@H](n2cc(/C=C/Br)c(=O)[nH]c2=O)C[C@@H]1OC(=O)COC` [Example 28, 5-(E-2-Bromovinyl)-2'-deoxy-3',5'-di-O-(methoxyacetyl)-uridine] the EC50 [1, 4] was 0.17 µg/mL, the EC50 [1, 5] was 0.36 µM and the MCC at 96 h [2] was over 100 µg/mL.

Work on `O=C(COc1ccccc1)OC[C@H]1O[C@@H](n2cc(/C=C/Br)c(=O)[nH]c2=O)C[C@@H]1OC(=O)COc1ccccc1` [Example 36, 5-(E-2-Bromovinyl)-2'-deoxy-3',5'-di-0-(phenoxyacetyl)-uridine] yielded an EC50 [1, 4] of 0.57 µg/mL, an EC50 [1, 5] of 0.95 µM and an MCC at 96 h [2] of over 100 µg/mL.

`CC(C)C[C@H](O)C(=O)OC[C@H]1O[C@@H](n2cc(/C=C/Br)c(=O)[nH]c2=O)C[C@@H]1O` [Example 25, 5-(E-2-Bromovinyl)-2'-deoxy-5'-0-(L-2-hydroxy-4-methyl-pentanoyl)uridine] gave an EC50 [1, 4] of 0.15 µg/mL, an EC50 [1, 5] of 0.34 µM and an MCC at 96 h [2] of over 100 µg/mL.

For `CC(Cl)C(=O)OC[C@H]1O[C@@H](n2cc(/C=C/Br)c(=O)[nH]c2=O)C[C@@H]1O` (stereo partly drawn) [Example 5], the EC50 [1, 4] was 0.14 µg/mL, the EC50 [1, 5] was 0.33 µM and the MCC at 96 h [2] was over 100 µg/mL.

With `O=C(OC[C@H]1O[C@@H](n2cc(/C=C/Br)c(=O)[nH]c2=O)C[C@@H]1O)[C@@H](O)c1ccccc1` [Example 23, 5-(E-2-Bromovinyl)-2'-deoxy-5'-O-[(2S)-hydroxyphenylacetyl]uridine] the EC50 [1, 4] was 0.16 µg/mL, the EC50 [1, 5] was 0.34 µM and the MCC at 96 h [2] was over 100 µg/mL.

In the case of `CC(C)C[C@H](O)C(=O)OC[C@H]1O[C@@H](n2cc(/C=C/Br)c(=O)[nH]c2=O)C[C@@H]1OC(=O)[C@@H](O)CC(C)C` [Example 26, 5-(E-2-Bromovinyl)-2'-deoxy-3',5-di-O-(L-2-hydroxy-4-methylpentanoyl)uridine], the EC50 [1, 4] is reported as 0.16 µg/mL, the EC50 [1, 5] is reported as 0.29 µM and the MCC at 96 h [2] is reported as over 100 µg/mL.

`CC(=O)OC(C)C(=O)OC[C@H]1O[C@@H](n2cc(/C=C/Br)c(=O)[nH]c2=O)C[C@@H]1O` (stereo partly drawn) [Example 10, E-5-(2-Bromovinyl)-5'-(2-acetoxypropionyl)-2'-deoxyuridine] showed an EC50 [1, 4] of 0.18 µg/mL, an EC50 [1, 5] of 0.4 µM and an MCC at 96 h [2] of over 100 µg/mL.

For `O=C(CCl)OC[C@H]1O[C@@H](n2cc(/C=C/Br)c(=O)[nH]c2=O)C[C@@H]1OC(=O)CCl` [Example 1, E-5-(2-Bromovinyl)-3',5'-bis (chloroacetyl)-2'-deoxyuridine], the EC50 [1, 4] was 0.14 µg/mL, the EC50 [1, 5] was 0.29 µM and the MCC at 96 h [2] was over 100 µg/mL.

With `CC(C)C[C@H](O[Si](C)(C)C(C)(C)C)C(=O)OC[C@H]1O[C@@H](n2cc(/C=C/Br)c(=O)[nH]c2=O)C[C@@H]1OC(=O)[C@H](CC(C)C)O[Si](C)(C)C(C)(C)C` [Example 32, 5-(E-2-Bromovilnyl)-3' ,5'-di-O-(L-2-t-butyldimethylsilyloxy-4-methylpentanoyl)-2'-deoxyuridirie] the EC50 [1, 6] was 4.9 µg/mL and 6.2 µM and the MCC at 96 h [2] was over 100 µg/mL.

Work on “E-5-(2-Bromovinyl)-5'-(L-2-t-butyldimethylsilyloxy-3-phenylpropionyl)-2'-deoxyuridine [Example 16]” yielded a PDD50 [1, 7] of 0.63 µg/mL, an EC50 [1, 8] of 0.68 µM and an MTD [3] of over 100 µg/mL.

Work on `CCC(Br)C(=O)OC[C@H]1O[C@@H](n2cc(/C=C/Br)c(=O)[nH]c2=O)C[C@@H]1O` (stereo partly drawn) [Example 33, 5-(E-2-Bromovin^yl)-5'-0-(2-bromobutyryl)-2'-deoxyuridine] yielded an EC50 [1, 4] of 0.16 µg/mL, an EC50 [1, 5] of 0.37 µM and an MCC at 96 h [2] of over 100 µg/mL.

`O=C(OC[C@H]1O[C@@H](n2cc(/C=C/Br)c(=O)[nH]c2=O)C[C@@H]1OC(=O)[C@H](O)c1ccccc1)[C@H](O)c1ccccc1` [Example 30] showed an EC50 [1, 4] of 0.66 µg/mL, an EC50 [1, 5] of 1.1 µM and an MCC at 96 h [2] of over 100 µg/mL.

In the case of `CCC(Br)C(=O)OC[C@H]1O[C@@H](n2cc(/C=C/Br)c(=O)[nH]c2=O)C[C@@H]1OC(=O)C(Br)CC` (stereo partly drawn) [Example 34, 5-(E-2-Bromovinyl)-3'-5'-di-O-(2-bromobutyryl) -2'-deoxyuridine], the EC50 [1, 4] is reported as 0.2 µg/mL, the EC50 [1, 5] is reported as 0.32 µM and the MCC at 96 h [2] is reported as 100 µg/mL.

Work on “E-5-(2-Bromovinyl)-3'-trimethylsilyl-5'-(4-dipropylsulphamoylbenzoyl- oxyacetyl)-2'-deoxyuridine [Example 14]” yielded a PDD50 [1, 7] of 0.32 µg/mL, an EC50 [1, 8] of 0.48 µM and an MTD [3] of over 100 µg/mL.

In the case of `O=C(COc1ccccc1)OC[C@H]1O[C@@H](n2cc(/C=C/Br)c(=O)[nH]c2=O)C[C@@H]1O` [Example 35, 5-(E-2-Bromovinyl)-2'-deoxy-5'-O-(phenoxyacetyl)uridine], the EC50 [1, 4] is reported as 0.18 µg/mL, the EC50 [1, 5] is reported as 0.38 µM and the MCC at 96 h [2] is reported as over 100 µg/mL.

Work on `CCCN(CCC)S(=O)(=O)c1ccc(C(=O)OCC(=O)OC[C@H]2O[C@@H](n3cc(/C=C/Br)c(=O)[nH]c3=O)C[C@@H]2O)cc1` [Example 7, E-5-(2 Bromovinyl)-5'-(4-dipropylsulphamoylbenzoyloxyacetyl)-2'-deoxyuridine] yielded an EC50 [1, 4] of 0.24 µg/mL, an EC50 [1, 5] of 0.37 µM and an MCC at 96 h [2] of over 100 µg/mL.

For `O=C(CCl)OC[C@H]1O[C@@H](n2cc(/C=C/Br)c(=O)[nH]c2=O)C[C@@H]1O` [Example 2, E-5-(2-Bromovinyl)-5'-chloroacetyl-2'-deoxyuridine], the EC50 [1, 4] was 0.12 µg/mL, the EC50 [1, 5] was 0.29 µM and the MCC at 96 h [2] was over 100 µg/mL.

For `O=C(O[C@H]1C[C@H](n2cc(/C=C/Br)c(=O)[nH]c2=O)O[C@@H]1CO)C(Cl)c1ccccc1` (stereo partly drawn) [Example 20, E-5-(2-Bromovinyl)-3'-(2-chlorophenylacetyl)-2'-deoxyuridine], the EC50 [1, 4] was 0.18 µg/mL, the EC50 [1, 5] was 0.37 µM and the MCC at 96 h [2] was over 100 µg/mL.

`O=C(OC[C@H]1O[C@@H](n2cc(/C=C/Br)c(=O)[nH]c2=O)C[C@@H]1OC(=O)[C@@H](O)c1ccccc1)[C@@H](O)c1ccccc1` [Example 24, 5-(E-2-Bromovinyl)-2'-deoxy-3', 5'-di-O-[(2S)-hydroxyphenylacetyl]uridine] showed an EC50 [1, 4] of 0.45 µg/mL, an EC50 [1, 5] of 0.75 µM and an MCC at 96 h [2] of over 100 µg/mL.

`CC(C)(Oc1ccc(Cl)cc1)C(=O)OCC(=O)OC[C@H]1O[C@@H](n2cc(/C=C/Br)c(=O)[nH]c2=O)C[C@@H]1OC(=O)COC(=O)C(C)(C)Oc1ccc(Cl)cc1` [Example 9, E-5-(2 Bromovinyl)-3',5'-bis(2-(4-chlorophenoxy)-2-methylpropionyloxy-acetyl]-2'-deoxyuridine] showed an EC50 [1, 4] of 1.47 µg/mL, an EC50 [1, 5] of 1.75 µM and an MCC at 96 h [2] of over 100 µg/mL.

With `COCC(=O)OC[C@H]1O[C@@H](n2cc(/C=C/Br)c(=O)[nH]c2=O)C[C@@H]1O` [Example 27, 5-(E-2-Bromovinyl)-2'-deoxy-5'-O-(methoxyacetyl)uridine] the EC50 [1, 4] was 0.12 µg/mL, the EC50 [1, 5] was 0.3 µM and the MCC at 96 h [2] was over 100 µg/mL.

With `O=C(OC[C@H]1O[C@@H](n2cc(/C=C/Br)c(=O)[nH]c2=O)C[C@@H]1OC(=O)C(Cl)c1ccccc1)C(Cl)c1ccccc1` (stereo partly drawn) [Example 22] the EC50 [1, 4] was 0.34 µg/mL, the EC50 [1, 5] was 0.53 µM and the MCC at 96 h [2] was over 100 µg/mL.

Work on `CCCN(CCC)S(=O)(=O)c1ccc(C(=O)OCC(=O)OC[C@H]2O[C@@H](n3cc(/C=C/Br)c(=O)[nH]c3=O)C[C@@H]2OC(=O)COC(=O)c2ccc(S(=O)(=O)N(CCC)CCC)cc2)cc1` [Example 6, E-5-(2-Bromovinyl)-3',5'-Bis (4-dipropylsulphamoylbenzoyloxyacetyl)-2'-deoxyuridine] yielded an EC50 [1, 4] of 2.03 µg/mL, an EC50 [1, 5] of 2.06 µM and an MCC at 96 h [2] of over 100 µg/mL.

With `CC(C)C[C@H](O[Si](C)(C)C(C)(C)C)C(=O)OC[C@H]1O[C@@H](n2cc(/C=C/Br)c(=O)[nH]c2=O)C[C@@H]1O` [Example 31, 5-(E-2-Bromovinyl)-5'-O-(L-2-t-butyldimethylsilyloxy-4-methylpentanoyl)-2'-deoxyurudine] the EC50 [1, 6] was 0.53 µg/mL and 940 nM and the MCC at 96 h [2] was over 100 µg/mL.

For `CC(Cl)C(=O)OC[C@H]1O[C@@H](n2cc(/C=C/Br)c(=O)[nH]c2=O)C[C@@H]1OC(=O)C(C)Cl` (stereo partly drawn) [Example 4], the EC50 [1, 4] was 0.14 µg/mL, the EC50 [1, 5] was 0.27 µM and the MCC at 96 h [2] was over 100 µg/mL.

Compound `O=C(OC[C@H]1O[C@@H](n2cc(/C=C/Br)c(=O)[nH]c2=O)C[C@@H]1O)[C@H](O)c1ccccc1` [Example 29] has an EC50 [1, 4] of 0.22 µg/mL, an EC50 [1, 5] of 0.47 µM and an MCC at 96 h [2] of over 100 µg/mL.

For `O=C(OC[C@H]1O[C@@H](n2cc(/C=C/Br)c(=O)[nH]c2=O)C[C@@H]1O)C(Cl)c1ccccc1` (stereo partly drawn) [Example 21], the EC50 [1, 4] was 0.07 µg/mL, the EC50 [1, 5] was 0.14 µM and the MCC at 96 h [2] was over 100 µg/mL.

`CC(C)(C)[Si](C)(C)O[C@@H](Cc1ccccc1)C(=O)OC[C@H]1O[C@@H](n2cc(/C=C/Br)c(=O)[nH]c2=O)C[C@@H]1OC(=O)[C@H](Cc1ccccc1)O[Si](C)(C)C(C)(C)C` [Example 18, E-5-(2-Bromovinyl)-3',5'-bis(L-2-t-butyldimethylsilyloxy-3-penylpropionyl)-2'-deoxyuridine] gave an EC50 [1, 6] of over 100 µg/mL and an MCC at 96 h [2] of over 100 µg/mL.

Work on `CCCN(CCC)S(=O)(=O)c1ccc(C(=O)OCC(=O)O[C@H]2C[C@H](n3cc(/C=C/Br)c(=O)[nH]c3=O)O[C@@H]2CO)cc1` [Example 8, E-5-(2-Bromovinyl)-3'-(4-dipropylsulphanoylbenzoyloxyacetyl)-2'-deoxyuridine] yielded an EC50 [1, 4] of 0.22 µg/mL, an EC50 [1, 5] of 0.33 µM and an MCC at 96 h [2] of over 100 µg/mL.

Work on `O=C(OC[C@H]1O[C@@H](n2cc(/C=C/Br)c(=O)[nH]c2=O)C[C@@H]1OC(=O)[C@@H](O)Cc1ccccc1)[C@@H](O)Cc1ccccc1` [Example 19, E-5-(2-bromovinyl)-3', 5' -bis(L-2-hydroxy-3-phenylpropionyl)-2'-deoxyuridine] yielded an EC50 [1, 4] of 0.43 µg/mL, an EC50 [1, 5] of 0.68 µM and an MCC at 96 h [2] of over 100 µg/mL.
